Results: patent US10253071B2, “Selectin inhibitors, composition, and uses related thereto” (Beth Israel Deaconess Medical Center, Inc., priority 2014, dated 2019)
pIC50: −log10 of the molar value. Square brackets hold non-standard residues; d marks the D form. Peptide text beside a SMILES is read from it. * marks the point of attachment. X1 = CC(=O)N[C@@H]1[C@@H](O[C@@H]2O[C@H](CO)[C@H](O)[C@H](O)[C@H]2O)[C@@H](O)[C@@H](CO[C@@H]2O[C@H](CO)[C@@H](O[C@@H]3O[C@H](CO)[C@H](O)[C@H](O[C@]4(C(=O)O)C[C@H](O)[C@@H](NC(C)=O)[C@H]([C@H](O)[C@H](O)CO)O4)[C@H]3O)[C@H](O[C@@H]3O[C@@H](C)[C@@H](O)[C@@H](O)[C@@H]3O)[C@H]2NC(C)=O)O[C@@H]1*; Phe(4-CH2SO3H) = N[C@@H](Cc1ccc(CS(=O)(=O)O)cc1)C(=O)O; Mca = COc1ccc2c(CC(=O)*)cc(=O)oc2c1

Assays:
[1] = target: T1, Recombinant mouse L-selectin Fc chimera (Mus musculus, UniProt P18337); experiment: Flow cytometry, inhibition of mouse L-selectin Fc chimera binding to murine neutrophils; type: cell-based; settings: chimera 2 μg/mL, read-out: IC50, PSGL-1/L-selectin interactions, murine neutrophils
T1 sequence (P18337 39-372): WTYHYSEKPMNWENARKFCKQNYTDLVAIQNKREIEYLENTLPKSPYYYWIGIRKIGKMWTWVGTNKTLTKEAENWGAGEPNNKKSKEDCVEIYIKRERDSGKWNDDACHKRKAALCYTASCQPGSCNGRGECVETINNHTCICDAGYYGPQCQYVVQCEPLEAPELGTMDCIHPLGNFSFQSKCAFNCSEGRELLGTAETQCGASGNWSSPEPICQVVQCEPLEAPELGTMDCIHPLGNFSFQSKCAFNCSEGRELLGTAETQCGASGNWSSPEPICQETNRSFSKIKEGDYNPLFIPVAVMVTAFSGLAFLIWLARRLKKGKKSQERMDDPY
Method: Flow cytometry was used to characterize the ability of GSnP-6 to block binding of selectin-IgG chimeras to murine and human leukocytes. Recombinant mouse P- or L-selectin Fc chimera (2 μg/mL) was incubated with murine neutrophils and GSnP-6 (0-30 μM). Likewise, recombinant human P-selectin or L-selectin Fc chimera were incubated with human peripheral blood neutrophils and monocytes, as well as the human U937 cell line in the presence of GSnP-6 (0-30 μM). Binding of selectin-IgG chimeras was detected with PE-conjugated anti-IgG antibody, quantified as mean fluorescent intensity, and plotted as percent inhibition. Specificity was confirmed with selectin-specific blocking antibodies.

[2] = tested on: leukocyte binding to microvascular endothelium; experiment: Intravital microscopy of murine cremaster muscle microcirculation, leukocyte rolling; type: in vivo; settings: mouse cremaster venules 30 to 40 μm, 4 μmol/kg IV, saline 40.8±1.7, p≤0.01
Method: Intravital microscopy was used to determine the ability of GsnP-6 to inhibit leukocyte binding to microvascular endothelium. PSGL-1 expressed on circulating leukocytes binds to selectins on endothelium; inducing leukocyte rolling to facilitate subsequent tight binding to integrin receptors. Inhibition of this interaction leads to an increase in rolling velocity. Intravital microscopy of the murine cremaster muscle microcirculation was performed on venules with a diameter of 30 to 40 μm. Seven venules per mouse (n=4, saline (control); n=3, GSnP-6, 4 μmol/kg IV) were analyzed and the velocities of 5 to 10 rolling leukocytes were determined in each venule by individually tracking leukocyte distance/time (μm/s). A significant increase in mean rolling velocity was observed after intravenous administration of GSnP-6 (FIG. GsnP-6: 74.9±3.4 μm/s, saline: 40.8±1.7 μm/s; p≤0.01).

mouse P-selectin = target: T2, mouse P-selectin (Mus musculus, UniProt Q01102); experiment: Biacore binding assay, mouse P-selectin
T2 sequence (Q01102 42-768): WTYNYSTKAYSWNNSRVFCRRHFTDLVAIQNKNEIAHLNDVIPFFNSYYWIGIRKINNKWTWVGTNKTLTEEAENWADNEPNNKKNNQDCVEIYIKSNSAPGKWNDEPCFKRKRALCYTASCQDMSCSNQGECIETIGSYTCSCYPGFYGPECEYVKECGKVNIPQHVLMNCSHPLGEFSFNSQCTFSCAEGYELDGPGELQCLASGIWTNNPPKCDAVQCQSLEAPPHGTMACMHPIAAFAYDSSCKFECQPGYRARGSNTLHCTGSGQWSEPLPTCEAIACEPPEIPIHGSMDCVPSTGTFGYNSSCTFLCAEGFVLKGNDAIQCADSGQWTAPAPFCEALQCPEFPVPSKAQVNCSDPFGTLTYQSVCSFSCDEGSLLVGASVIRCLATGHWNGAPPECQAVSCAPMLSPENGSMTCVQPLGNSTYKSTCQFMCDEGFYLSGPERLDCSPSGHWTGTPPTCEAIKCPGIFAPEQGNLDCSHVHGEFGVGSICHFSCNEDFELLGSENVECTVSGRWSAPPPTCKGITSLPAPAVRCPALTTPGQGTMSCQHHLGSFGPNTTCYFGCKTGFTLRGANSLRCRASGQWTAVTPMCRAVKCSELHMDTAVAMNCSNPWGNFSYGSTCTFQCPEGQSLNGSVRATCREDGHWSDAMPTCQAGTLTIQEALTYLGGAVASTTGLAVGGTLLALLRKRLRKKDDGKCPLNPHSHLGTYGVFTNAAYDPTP
Method: (§1) Bound peptides were detected using Alexa-488 labeled anti-human IgG antibody (5 μg/mL). Three lectins RCA-1, AAL, and PNA were used to confirm the sequence of enzymatic steps. Monoclonal antibodies CHO131, PSG2 antibody and PL-1 were used to confirm the presence of SLex, tyrosine sulfates, and the peptide sequence, respectively. Biacore binding analysis to human P-selectin with observed rate constants for (D) GSnP-6, kon 3.1×10^5 M^−1s^−1, koff 6.9×10^3 M^−1s^−; GSn2P-6, kon6.4×10^5 M^−1s^−1, koff 6.8×10^3 M^−1s. Biacore binding analysis to mouse P-selectin with observed rate constants for (E) GsnP-6, kon 4.9×10^4 M^−1s^−1, koff 8.0×10^3 M^−1s^−; GSn2P-6 kon 5.3×10^4 M^−1s^−1, koff 9.0×10^3 M^−1s. (F) Temperature- and pH-dependent stability studies of GSnP-6.
Dissociation constants (Kd) were determined using a Biacore binding assay after initial capture of biotinylated GS(n)P-6 onto streptavidin-coated sensor chips followed by flow through of P-, L- or E-sel-Ig (2.5 to 60 μg/mL). […] The Kd of GSnP-6 to murine P-selectin was ˜9-fold lower than to human P-selectin.

[3] = Chemical stability at low pH and at high temperature (RP-HPLC); type: physicochemical; settings: sodium acetate/acetic acid buffer pH 5, 37° C.; and 2 mM phosphate buffer pH 7.5, 60° C.
Method: as §1
The chemical stability of GSnP-6 was evaluated under low pH conditions by incubating the compound in sodium acetate/acetic acid buffer at pH 5, 37° C., as well as under high temperature conditions by incubation in 2 mM phosphate buffer at pH 7.5, 60° C. (FIG. 3E).

What does the source list for `COc1ccc2c(CC(=O)NCCCC[C@H](N)C(=O)N[C@@H](CCC(=O)O)C(=O)N[C@@H](Cc3ccc(CS(=O)(=O)O)cc3)C(=O)N[C@@H](CCC(=O)O)C(=O)N[C@@H](Cc3ccc(CS(=O)(=O)O)cc3)C(=O)N[C@@H](CC(C)C)C(=O)N[C@@H](CC(=O)O)C(=O)N[C@@H](Cc3ccc(CS(=O)(=O)O)cc3)C(=O)N[C@@H](CC(=O)O)C(=O)N[C@@H](Cc3ccccc3)C(=O)N[C@@H](CC(C)C)C(=O)N3CCC[C@H]3C(=O)N[C@@H](CCC(=O)O)C(=O)N[C@H](C(=O)N[C@@H](CCC(=O)O)C(=O)N3CCC[C@H]3C(=O)N[C@@H](CC(C)C)C(=O)O)[C@@H](C)O[C@H]3O[C@H](CO[C@@H]4O[C@H](CO)[C@@H](O[C@@H]5O[C@H](CO)[C@H](O)[C@H](O[C@]6(C(=O)O)C[C@H](O)[C@@H](NC(C)=O)[C@H]([C@H](O)[C@H](O)CO)O6)[C@H]5O)[C@H](O[C@@H]5O[C@@H](C)[C@@H](O)[C@@H](O)[C@@H]5O)[C@H]4NC(C)=O)[C@H](O)[C@H](O[C@@H]4O[C@H](CO)[C@H](O)[C@H](O)[C@H]4O)[C@H]3NC(C)=O)cc(=O)oc2c1` [GSnP-6] (H-K(Mca)E[Phe(4-CH2SO3H)]E[Phe(4-CH2SO3H)]LD[Phe(4-CH2SO3H)]DFLPET(X1)EPL-OH)?
pIC50 [1]: < 4.30; mean leukocyte rolling velocity [2]: increased leukocyte rolling velocity; mean leukocyte rolling velocity ([2]; listed as GsnP-6): 74.9±3.4 μm/s; Kd to murine P-selectin relative to human P-selectin (mouse P-selectin; printed as fold lower than to human P-selectin): ~9 fold; koff (mouse P-selectin; read-out: koff, mouse P-selectin): 0.008 s⁻¹; kon (mouse P-selectin; read-out: kon, mouse P-selectin): 49000 M⁻¹ s⁻¹; chemical stability (degraded products by RP-HPLC) [3]: degraded products were not detected
